Results from article PMC5218480 (PLoS ONE, 2017).

Tested on: MV-4-11 cells
Experiment: Gene expression microarray analysis (Affymetrix PrimeView) and GSEA
Type: cell-based, human
Design: RFU PODN (11730768_x_at) / Fold change /veh PODN (11730768_x_at) / RFU LINC00158 (11744669_a_at) / Fold change /veh LINC00158 (11744669_a_at) / RFU DUSP10 (11751237_a_at) / Fold change /veh DUSP10 (11751237_a_at) / RFU ID3 (11757404_x_at) / Fold change /veh ID3 (11757404_x_at) / RFU PLEKHG5 (11737974_s_at) / Fold change /veh PLEKHG5 (11737974_s_at) / RFU LRRC4B (11730491_at) / Fold change /veh LRRC4B (11730491_at) / RFU GIMAP4 (11747438_a_at) / Fold change /veh GIMAP4 (11747438_a_at) / RFU KRT8 (11758183_x_at) / Fold change /veh KRT8 (11758183_x_at) / RFU CNN1 (11734310_a_at) / Fold change /veh CNN1 (11734310_a_at) / RFU VPS37D (11726825_at) / Fold change /veh VPS37D (11726825_at) / RFU C10orf10 (11716522_x_at) / Fold change /veh C10orf10 (11716522_x_at) / RFU KIR2DL2 /// KIR2DL4 /// KIR2DL5A /// KIR2DL5B /// KIR2DS1 /// KIR2DS2 /// KIR2DS3 /// KIR2DS4 /// KIR3DL3 /// KIR3DL3 /// KIR3DS1 (11738374_at) / Fold change /veh KIR2DL2 /// KIR2DL4 /// KIR2DL5A /// KIR2DL5B /// KIR2DS1 /// KIR2DS2 /// KIR2DS3 /// KIR2DS4 /// KIR3DL3 /// KIR3DL3 /// KIR3DS1 (11738374_at) / RFU C1QL1 (11718748_at) / Fold change /veh C1QL1 (11718748_at) / RFU TMPRSS4 (11747572_a_at) / Fold change /veh TMPRSS4 (11747572_a_at) / RFU HAMP (11756126_x_at) / Fold change /veh HAMP (11756126_x_at) / RFU RNFT2 (11725882_a_at) / Fold change /veh RNFT2 (11725882_a_at) / RFU NR4A2 (11747474_a_at) / Fold change /veh NR4A2 (11747474_a_at) / RFU ABCC12 (11746883_a_at) / Fold change /veh ABCC12 (11746883_a_at) / RFU TMEM136 (11760407_x_at) / Fold change /veh TMEM136 (11760407_x_at) / RFU CLDN22 /// WWC2 (11732394_at) / Fold change /veh CLDN22 /// WWC2 (11732394_at) / RFU HLA-DPB1 (11760878_x_at) / Fold change /veh HLA-DPB1 (11760878_x_at) / RFU SPINT1 (11716480_a_at) / Fold change /veh SPINT1 (11716480_a_at) / RFU GAP43 (11754022_s_at) / Fold change /veh GAP43 (11754022_s_at) / RFU A4GNT (11735810_at) / Fold change /veh A4GNT (11735810_at) / RFU PRB3 (11715151_x_at) / Fold change /veh PRB3 (11715151_x_at) / RFU TUBB4B (11761932_at) / Fold change /veh TUBB4B (11761932_at) / RFU CAPN14 (11732068_a_at) / Fold change /veh CAPN14 (11732068_a_at) / RFU TMCC2 (11721928_a_at) / Fold change /veh TMCC2 (11721928_a_at) / RFU IRGQ (11745062_a_at) / Fold change /veh IRGQ (11745062_a_at) / RFU FAM174B (11720279_a_at) / Fold change /veh FAM174B (11720279_a_at) / RFU TMPRSS4 (11748680_a_at) / Fold change /veh TMPRSS4 (11748680_a_at) / RFU FAM212B (11763350_a_at) / Fold change /veh FAM212B (11763350_a_at) / RFU PLEKHG5 (11743358_a_at) / Fold change /veh PLEKHG5 (11743358_a_at) / RFU ZSCAN30 (11745921_a_at) / Fold change /veh ZSCAN30 (11745921_a_at) / RFU CMKLR1 (11741424_a_at) / Fold change /veh CMKLR1 (11741424_a_at) / RFU LOC101060620 /// MAPK8IP1 (11723275_at) / Fold change /veh LOC101060620 /// MAPK8IP1 (11723275_at) / RFU SPTSSB (11747773_x_at) / Fold change /veh SPTSSB (11747773_x_at) / RFU PRSS12 (11739890_at) / Fold change /veh PRSS12 (11739890_at) / RFU BIN1 (11741810_x_at) / Fold change /veh BIN1 (11741810_x_at) / RFU WNT11 (11732464_a_at) / Fold change /veh WNT11 (11732464_a_at) / RFU C10orf10 (11716521_a_at) / Fold change /veh C10orf10 (11716521_a_at) / RFU C5orf56 (11738089_at) / Fold change /veh C5orf56 (11738089_at) / RFU CYB561 (11721691_x_at) / Fold change /veh CYB561 (11721691_x_at) / RFU ANKRD19P (11752326_a_at) / Fold change /veh ANKRD19P (11752326_a_at) / RFU OR2T12 /// OR2T33 /// OR2T8 (11738714_s_at) / Fold change /veh OR2T12 /// OR2T33 /// OR2T8 (11738714_s_at) / RFU VCAN (11748164_a_at) / Fold change /veh VCAN (11748164_a_at) / RFU JSRP1 (11732532_at) / Fold change /veh JSRP1 (11732532_at) / RFU KRTAP10-11 (11738290_x_at) / Fold change /veh KRTAP10-11 (11738290_x_at) / RFU MYO3A (11730013_a_at) / Fold change /veh MYO3A (11730013_a_at) / RFU EBF3 (11725865_a_at) / Fold change /veh EBF3 (11725865_a_at) / RFU CAMK2N1 (11719241_x_at) / Fold change /veh CAMK2N1 (11719241_x_at) / RFU C5orf56 (11738088_a_at) / Fold change /veh C5orf56 (11738088_a_at) / RFU OLFML3 (11715873_a_at) / Fold change /veh OLFML3 (11715873_a_at) / RFU LOC100653217 /// NTM (11731650_a_at) / Fold change /veh LOC100653217 /// NTM (11731650_a_at) / RFU MAPK11 (11762145_a_at) / Fold change /veh MAPK11 (11762145_a_at) / RFU FIZ1 (11724087_x_at) / Fold change /veh FIZ1 (11724087_x_at) / RFU OASL (11726364_x_at) / Fold change /veh OASL (11726364_x_at) / RFU SOX15 (11748057_x_at) / Fold change /veh SOX15 (11748057_x_at) / RFU CD79A (11719716_a_at) / Fold change /veh CD79A (11719716_a_at) / RFU HIST1H1D (11736915_at) / Fold change /veh HIST1H1D (11736915_at) / RFU CASKIN2 (11723855_a_at) / Fold change /veh CASKIN2 (11723855_a_at) / RFU LOC730098 (11760151_x_at) / Fold change /veh LOC730098 (11760151_x_at) / RFU OR4N2 (11742367_at) / Fold change /veh OR4N2 (11742367_at) / RFU PRRT2 (11749266_a_at) / Fold change /veh PRRT2 (11749266_a_at) / RFU SNX32 (11753110_a_at) / Fold change /veh SNX32 (11753110_a_at) / RFU CDHR5 (11726645_a_at) / Fold change /veh CDHR5 (11726645_a_at) / RFU RCAN1 (11760418_a_at) / Fold change /veh RCAN1 (11760418_a_at) / RFU FAM167A (11723789_a_at) / Fold change /veh FAM167A (11723789_a_at) / RFU FAM26E (11764081_at) / Fold change /veh FAM26E (11764081_at) / RFU ISYNA1 (11749810_s_at) / Fold change /veh ISYNA1 (11749810_s_at) / RFU ACY1 (11761880_at) / Fold change /veh ACY1 (11761880_at) / RFU 11764098_at / Fold change /veh 11764098_at / RFU SAMD14 (11745864_x_at) / Fold change /veh SAMD14 (11745864_x_at) / RFU NPB (11741838_a_at) / Fold change /veh NPB (11741838_a_at) / RFU TMPRSS6 (11731388_a_at) / Fold change /veh TMPRSS6 (11731388_a_at) / RFU KRTAP10-2 (11738614_at) / Fold change /veh KRTAP10-2 (11738614_at) / RFU ARHGAP8 /// PRR5-ARHGAP8 (11727945_x_at) / Fold change /veh ARHGAP8 /// PRR5-ARHGAP8 (11727945_x_at) / RFU KRTAP5-7 /// NADSYN1 (11734609_at) / Fold change /veh KRTAP5-7 /// NADSYN1 (11734609_at) / RFU RASL12 (11751679_a_at) / Fold change /veh RASL12 (11751679_a_at) / RFU CDKN2B (11736163_a_at) / Fold change /veh CDKN2B (11736163_a_at) / RFU PRF1 (11729649_at) / Fold change /veh PRF1 (11729649_at) / RFU, ZNF638 /// ZNF638-IT1 / Fold change vs veh, ZNF638 /// ZNF638-IT1 / RFU, PANK3 / Fold change vs veh, PANK3 / RFU, SH3YL1 / Fold change vs veh, SH3YL1 / RFU, ZEB2 / Fold change vs veh, ZEB2 / RFU, NRIP1 / Fold change vs veh, NRIP1 / RFU, PTTG1IP / Fold change vs veh, PTTG1IP / RFU, CAPN2 / Fold change vs veh, CAPN2 / RFU, MED14 / Fold change vs veh, MED14 / RFU, SNORA58 / Fold change vs veh, SNORA58 / RFU, C1orf63 / Fold change vs veh, C1orf63 / RFU, LRRFIP1 / Fold change vs veh, LRRFIP1 / RFU, NDUFAF7 / Fold change vs veh, NDUFAF7 / RFU, SLC12A2 / Fold change vs veh, SLC12A2 / RFU, IBTK / Fold change vs veh, IBTK / RFU, ESF1 / Fold change vs veh, ESF1 / Fold change vs veh, TMEM50B / RFU, TAOK1 / Fold change vs veh, TAOK1 / RFU, ACBD3 / Fold change vs veh, ACBD3 / RFU, TMA16 / Fold change vs veh, TMA16 / RFU, RWDD3 / Fold change vs veh, RWDD3 / RFU, BCAT1 / Fold change vs veh, BCAT1 / RFU, EDEM3 / Fold change vs veh, EDEM3 / RFU, TMEM33 / Fold change vs veh, TMEM33 / RFU, WDR75 / Fold change vs veh, WDR75 / RFU, AHCTF1 / Fold change vs veh, AHCTF1 / RFU, TFRC / Fold change vs veh, TFRC / RFU, ZDHHC17 / Fold change vs veh, ZDHHC17 / RFU, NOM1 / Fold change vs veh, NOM1 / RFU, ARL8B / Fold change vs veh, ARL8B / RFU, ZBTB11 / Fold change vs veh, ZBTB11 / RFU, TAMM41 / Fold change vs veh, TAMM41 / RFU, KIAA1704 /// LOC100996395 / Fold change vs veh, KIAA1704 /// LOC100996395 / RFU, ING1 / Fold change vs veh, ING1 / RFU, TRMT61B / Fold change vs veh, TRMT61B / RFU, FUBP3 / Fold change vs veh, FUBP3 / RFU, TP53 / Fold change vs veh, TP53 / RFU, TNKS2 / Fold change vs veh, TNKS2 / RFU, ZFP14 / Fold change vs veh, ZFP14 / RFU, ACTR2 / Fold change vs veh, ACTR2 / RFU, PPP3R1 / Fold change vs veh, PPP3R1 / RFU, PIK3R1 / Fold change vs veh, PIK3R1 / RFU, HNRNPA1 / Fold change vs veh, HNRNPA1 / RFU, RNF170 / Fold change vs veh, RNF170 / RFU, ZNF28 / Fold change vs veh, ZNF28 / RFU, RNGTT / Fold change vs veh, RNGTT / RFU, OGT / Fold change vs veh, OGT / RFU, BRD1 / Fold change vs veh, BRD1 / RFU, MARS / Fold change vs veh, MARS / RFU, ZNF655 / Fold change vs veh, ZNF655 / RFU, FAHD1 / Fold change vs veh, FAHD1 / RFU, BDP1 / Fold change vs veh, BDP1 / RFU, LRRCC1 / Fold change vs veh, LRRCC1 / RFU, ARID1A / Fold change vs veh, ARID1A / RFU, ZNF146 / Fold change vs veh, ZNF146 / RFU, ZNF330 / Fold change vs veh, ZNF330 / RFU, GPN3 / Fold change vs veh, GPN3 / RFU, C9orf123 / Fold change vs veh, C9orf123 / RFU, N4BP2L2 / Fold change vs veh, N4BP2L2 / RFU, ARFIP1 / Fold change vs veh, ARFIP1 / RFU, FAM179B / Fold change vs veh, FAM179B / RFU, BCL10 / Fold change vs veh, BCL10 / RFU, UHRF1BP1L / Fold change vs veh, UHRF1BP1L / RFU, BET1 / Fold change vs veh, BET1 / RFU, CNOT2 / Fold change vs veh, CNOT2 / RFU, ZNF268 / Fold change vs veh, ZNF268 / Fold change vs veh, ZNF507 / RFU, DGCR2 / Fold change vs veh, DGCR2 / RFU, WDSUB1 / Fold change vs veh, WDSUB1 / Fold change vs veh, HSP90B1 /// MIR3652 / RFU, ADSS / Fold change vs veh, ADSS / RFU, GK / Fold change vs veh, GK / RFU, ZNF148 / Fold change vs veh, ZNF148 / RFU, TAF9 / Fold change vs veh, TAF9 / RFU, SLC1A5 / Fold change vs veh, SLC1A5 / RFU, SLMO2 / Fold change vs veh, SLMO2 / RFU, ABCC4 / Fold change vs veh, ABCC4 / RFU, LOC101060439 /// RAP1B / Fold change vs veh, LOC101060439 /// RAP1B / RFU, RFX7 / Fold change vs veh, RFX7 / RFU, GTPBP10 / Fold change vs veh, GTPBP10 / RFU, CNEP1R1 / Fold change vs veh, CNEP1R1 / RFU, BIVM-ERCC5 /// ERCC5 / Fold change vs veh, BIVM-ERCC5 /// ERCC5 / RFU, ILF3 / Fold change vs veh, ILF3 / RFU 11762660_at / Fold change /veh 11762660_at / RFU VCAN (11757783_s_at) / Fold change /veh VCAN (11757783_s_at) / RFU DDX43 (11728927_at) / Fold change /veh DDX43 (11728927_at) / RFU KRT8 (11758188_x_at) / Fold change /veh KRT8 (11758188_x_at) / RFU NKD1 (11759106_at) / Fold change /veh NKD1 (11759106_at) / RFU SRD5A1 (11742802_a_at) / Fold change /veh SRD5A1 (11742802_a_at) / RFU TPSAB1 /// TPSB2 (11721975_s_at) / Fold change /veh TPSAB1 /// TPSB2 (11721975_s_at) / RFU GSTM3 (11746129_a_at) / Fold change /veh GSTM3 (11746129_a_at) / RFU IL23R (11737362_x_at) / Fold change /veh IL23R (11737362_x_at) / RFU TMEM51 (11727254_a_at) / Fold change /veh TMEM51 (11727254_a_at) / RFU PIWIL2 (11732686_x_at) / Fold change /veh PIWIL2 (11732686_x_at) / RFU ORM1 (11744905_x_at) / Fold change /veh ORM1 (11744905_x_at) / RFU CCDC152 (11743942_at) / Fold change /veh CCDC152 (11743942_at) / RFU ECM1 (11717891_a_at) / Fold change /veh ECM1 (11717891_a_at) / RFU IL23R (11748794_a_at) / Fold change /veh IL23R (11748794_a_at) / RFU TNFAIP8L3 (11732012_x_at) / Fold change /veh TNFAIP8L3 (11732012_x_at) / RFU MBOAT4 (11741988_at) / Fold change /veh MBOAT4 (11741988_at) / RFU 11764193_at / Fold change /veh 11764193_at / RFU TMEM53 (11763286_at) / Fold change /veh TMEM53 (11763286_at) / RFU MAGEB2 (11727129_at) / Fold change /veh MAGEB2 (11727129_at) / RFU TMEM200A (11744735_a_at) / Fold change /veh TMEM200A (11744735_a_at) / RFU CCDC152 (11751479_a_at) / Fold change /veh CCDC152 (11751479_a_at) / RFU FAM211A (11726209_a_at) / Fold change /veh FAM211A (11726209_a_at) / RFU RGS16 (11746705_a_at) / Fold change /veh RGS16 (11746705_a_at) / RFU VCAN (11755009_s_at) / Fold change /veh VCAN (11755009_s_at) / RFU RHOB (11743442_s_at) / Fold change /veh RHOB (11743442_s_at) / RFU RGS16 (11720943_a_at) / Fold change /veh RGS16 (11720943_a_at) / RFU RGS16 (11720944_at) / Fold change /veh RGS16 (11720944_at) / RFU, VPS4B / Fold change vs veh, VPS4B / RFU, CREB1 / Fold change vs veh, CREB1 / RFU, DNAJC13 / Fold change vs veh, DNAJC13 / RFU, GNAQ / Fold change vs veh, GNAQ / RFU, CDK5R1 / Fold change vs veh, CDK5R1 / RFU, ZRANB3 / Fold change vs veh, ZRANB3 / RFU, CUL4A / Fold change vs veh, CUL4A / RFU, CCNY / Fold change vs veh, CCNY / RFU, UFL1 / Fold change vs veh, UFL1 / RFU, COG3 / Fold change vs veh, COG3 / RFU, DIAPH2 / Fold change vs veh, DIAPH2 / RFU, SKA2 / Fold change vs veh, SKA2 / RFU, AFF3 / Fold change vs veh, AFF3 / RFU, LMF1 / Fold change vs veh, LMF1 / RFU, IPO11 / Fold change vs veh, IPO11 / RFU, DFFB / Fold change vs veh, DFFB / RFU, FOXP1 / Fold change vs veh, FOXP1 / RFU, CARD8 / Fold change vs veh, CARD8 / RFU, STRN3 / Fold change vs veh, STRN3 / RFU, ADK / Fold change vs veh, ADK / RFU, RASSF2 / Fold change vs veh, RASSF2 / RFU, WIPF1 / Fold change vs veh, WIPF1 / RFU, LARP1B / Fold change vs veh, LARP1B / RFU, RASA1 / Fold change vs veh, RASA1 / RFU, RB1 / Fold change vs veh, RB1 / RFU, PPFIA1 / Fold change vs veh, PPFIA1 / RFU, MAT2A / Fold change vs veh, MAT2A / RFU, CCT5 / Fold change vs veh, CCT5 / RFU, WDR92 / Fold change vs veh, WDR92 / RFU, CUX1 / Fold change vs veh, CUX1 / RFU, TTC7A / Fold change vs veh, TTC7A / RFU, TMEM135 / Fold change vs veh, TMEM135 / RFU, DEPTOR / Fold change vs veh, DEPTOR / RFU, CPM / Fold change vs veh, CPM / RFU, DNAJB6 / Fold change vs veh, DNAJB6 / RFU, CACNA2D3 / Fold change vs veh, CACNA2D3 / RFU, DTX4 / Fold change vs veh, DTX4 / RFU, TFCP2 / Fold change vs veh, TFCP2 / RFU, GMCL1 /// GMCL1P1 / Fold change vs veh, GMCL1 /// GMCL1P1 / RFU, AEBP2 / Fold change vs veh, AEBP2 / RFU, SNHG1 /// SNORD22 /// SNORD25 /// SNORD26 /// SNORD27 /// SNORD28 /// SNORD29 /// SNORD31 / Fold change vs veh, SNHG1 /// SNORD22 /// SNORD25 /// SNORD26 /// SNORD27 /// SNORD28 /// SNORD29 /// SNORD31 / Fold change (Aza/veh), C12orf56 (ProbeSet 11735607_a_at) / Fold change (ACY-1035/veh), C12orf56 (ProbeSet 11735607_a_at) / Fold change (Aza/veh), FGFR1OP (ProbeSet 11751329_s_at) / Fold change (ACY-1035/veh), FGFR1OP (ProbeSet 11751329_s_at) / Fold change (Aza/veh), VPS36 (ProbeSet 11739960_a_at) / Fold change (ACY-1035/veh), VPS36 (ProbeSet 11739960_a_at) / RFU SYPL1 (11715823_x_at) / Fold change /veh SYPL1 (11715823_x_at) / RFU IGFBP7 (11715501_s_at) / Fold change /veh IGFBP7 (11715501_s_at) / RFU REEP3 (11722064_at) / Fold change /veh REEP3 (11722064_at) / RFU IGLL1 (11728026_x_at) / Fold change /veh IGLL1 (11728026_x_at): dose or concentration left out as unconfirmed
Conditions: MV-4-11 cells, 48 hours

Nc1ncn([C@@H]2O[C@H](CO)[C@@H](O)[C@H]2O)c(=O)n1 [azacitidine]
RFU VPS37D (11726825_at): 18.02 RFU
